Measured values reported in article PMC5839718 (The Journal of General Physiology, 2018).
Where two headings read alike, the source gives them in different places.

How the values were obtained:
[1] = target: α4β2 nAChR from β-6-α and α4^VFL (1:25) (Homo sapiens, UniProt P17787+P43681, H142V/Q150F/T152L); test: two-electrode voltage-clamp, oocytes, β-6-α and α4^VFL 1:25; type: cell-based; details: β-6-α + α4^VFL 1:25; biphasic fit
[2] = target: α4β2 nAChR from β-9a-α and α4^VFL (1:1) (Homo sapiens, UniProt P17787+P43681, H142V/Q150F/T152L); test: two-electrode voltage-clamp, oocytes, β-9a-α and α4^VFL; type: cell-based
Chain of α4β2 nAChR from β-9a-α and α4^VFL (1:1) (P17787 26-502): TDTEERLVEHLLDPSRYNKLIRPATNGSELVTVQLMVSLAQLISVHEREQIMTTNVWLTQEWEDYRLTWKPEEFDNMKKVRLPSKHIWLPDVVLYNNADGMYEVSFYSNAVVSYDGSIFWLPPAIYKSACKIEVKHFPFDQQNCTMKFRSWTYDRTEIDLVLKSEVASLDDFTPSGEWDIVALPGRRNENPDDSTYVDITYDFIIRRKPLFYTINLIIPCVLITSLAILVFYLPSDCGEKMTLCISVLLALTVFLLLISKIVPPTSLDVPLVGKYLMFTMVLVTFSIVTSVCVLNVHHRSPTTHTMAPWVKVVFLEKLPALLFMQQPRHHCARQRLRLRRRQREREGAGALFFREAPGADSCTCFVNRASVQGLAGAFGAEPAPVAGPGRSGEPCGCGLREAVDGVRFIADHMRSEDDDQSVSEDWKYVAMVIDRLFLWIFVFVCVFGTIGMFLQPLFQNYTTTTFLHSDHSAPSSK
Chain of α4β2 nAChR from β-9a-α and α4^VFL (1:1) (P43681 27-627, stated change not applied): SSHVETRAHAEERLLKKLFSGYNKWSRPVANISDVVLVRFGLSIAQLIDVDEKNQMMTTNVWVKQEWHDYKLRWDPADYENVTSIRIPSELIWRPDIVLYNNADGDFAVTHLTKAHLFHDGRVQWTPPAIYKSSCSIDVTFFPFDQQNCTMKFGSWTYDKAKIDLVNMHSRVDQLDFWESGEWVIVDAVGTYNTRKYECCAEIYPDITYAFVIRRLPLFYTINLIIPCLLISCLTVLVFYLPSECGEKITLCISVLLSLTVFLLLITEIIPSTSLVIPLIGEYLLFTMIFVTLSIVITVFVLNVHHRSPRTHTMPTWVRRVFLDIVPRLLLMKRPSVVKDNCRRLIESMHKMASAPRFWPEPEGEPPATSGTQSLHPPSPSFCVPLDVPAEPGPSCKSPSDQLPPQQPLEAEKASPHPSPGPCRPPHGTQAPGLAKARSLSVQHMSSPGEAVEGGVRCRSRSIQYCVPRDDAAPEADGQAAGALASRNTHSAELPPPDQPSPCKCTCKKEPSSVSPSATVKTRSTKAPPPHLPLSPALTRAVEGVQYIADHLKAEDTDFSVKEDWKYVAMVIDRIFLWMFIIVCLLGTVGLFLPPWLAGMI
Chain of α4β2 nAChR from β-9a-α and α4^VFL (1:1) (P43681 27-627 H142V/Q150F/T152L): as the sequence (P43681 27-627, stated change not applied) above, with H116V, Q124F, T126L counted along it

[3] = target: α4β2 nAChR from β-6a-α and α4 (1:1) (Homo sapiens, UniProt P17787+P43681); test: two-electrode voltage-clamp, oocytes, β-6a-α and α4; type: cell-based; details: β-6a-α + α4; biphasic fit
[4] = target: α4β2 nAChR from β-3a-α alone (Homo sapiens, UniProt P17787+P43681); test: two-electrode voltage-clamp, oocytes, β-3a-α alone; type: cell-based
[5] = target: α4β2 nAChR from β-3a-α and α4 (1:1) (Homo sapiens, UniProt P17787+P43681); test: two-electrode voltage-clamp, oocytes, β-3a-α and α4; type: cell-based; details: β-3a-α + α4; biphasic fit
[6] = target: α4β2 nAChR from β-0a-α and α4 (1:1) (Homo sapiens, UniProt P17787+P43681); test: two-electrode voltage-clamp, oocytes, β-0a-α and α4; type: cell-based; details: β-0a-α + α4; biphasic fit
[7] = target: α4β2 nAChR from β-6-α-9-β-6-α and α4 (1:1) (Homo sapiens, UniProt P17787+P43681); test: two-electrode voltage-clamp, oocytes, β-6-α-9-β-6-α and α4; type: cell-based; details: β-6-α-9-β-6-α + α4
[8] = target: α4β2 nAChR from β-6-α-9-β-6-α and α4^VFL (1:25) (Homo sapiens, UniProt P17787+P43681, H142V/Q150F/T152L); test: two-electrode voltage-clamp, oocytes, β-6-α-9-β-6-α and α4^VFL 1:25; type: cell-based; details: β-6-α-9-β-6-α + α4^VFL 1:25; biphasic fit
Chain of α4β2 nAChR from β-6-α-9-β-6-α and α4^VFL (1:25) (P17787 26-502): as the sequence (P17787 26-502) above
Chain of α4β2 nAChR from β-6-α-9-β-6-α and α4^VFL (1:25) (P43681 27-627, stated change not applied): as the sequence (P43681 27-627, stated change not applied) above
Chain of α4β2 nAChR from β-6-α-9-β-6-α and α4^VFL (1:25) (P17787 26-502): as the sequence (P17787 26-502) above
Chain of α4β2 nAChR from β-6-α-9-β-6-α and α4^VFL (1:25) (P43681 27-627, stated change not applied): as the sequence (P43681 27-627, stated change not applied) above
Chain of α4β2 nAChR from β-6-α-9-β-6-α and α4^VFL (1:25) (P43681 34-627 H142V/Q150F/T152L limits assumed): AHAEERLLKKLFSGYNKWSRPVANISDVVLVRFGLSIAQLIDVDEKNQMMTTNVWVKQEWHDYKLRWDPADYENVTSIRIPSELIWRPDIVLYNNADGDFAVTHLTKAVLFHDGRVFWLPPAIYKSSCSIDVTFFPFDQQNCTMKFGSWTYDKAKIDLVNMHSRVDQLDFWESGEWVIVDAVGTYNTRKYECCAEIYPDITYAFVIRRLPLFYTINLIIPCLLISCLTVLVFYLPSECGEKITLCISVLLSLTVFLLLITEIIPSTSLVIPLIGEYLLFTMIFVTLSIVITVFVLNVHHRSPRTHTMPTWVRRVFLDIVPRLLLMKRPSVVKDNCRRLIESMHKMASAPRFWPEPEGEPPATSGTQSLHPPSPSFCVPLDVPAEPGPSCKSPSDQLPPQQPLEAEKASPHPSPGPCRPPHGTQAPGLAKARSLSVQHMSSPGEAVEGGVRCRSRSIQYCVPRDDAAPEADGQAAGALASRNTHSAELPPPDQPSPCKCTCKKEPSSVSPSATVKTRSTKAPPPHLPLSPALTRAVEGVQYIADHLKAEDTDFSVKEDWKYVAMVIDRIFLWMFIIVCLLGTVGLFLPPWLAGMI

[9] = target: α4β2 nAChR from β-21a-α-α-β-α (Homo sapiens, UniProt P17787+P43681); test: two-electrode voltage-clamp, oocytes, pentameric β-21a-α-α-β-α; type: cell-based
Chain of α4β2 nAChR from β-21a-α-α-β-α (P17787 26-502): as the sequence (P17787 26-502) above
Chain of α4β2 nAChR from β-21a-α-α-β-α (P43681 27-627): as the sequence (P43681 27-627, stated change not applied) above
Chain of α4β2 nAChR from β-21a-α-α-β-α (P43681 27-627): as the sequence (P43681 27-627, stated change not applied) above
Chain of α4β2 nAChR from β-21a-α-α-β-α (P17787 26-502): as the sequence (P17787 26-502) above
Chain of α4β2 nAChR from β-21a-α-α-β-α (P43681 27-627): as the sequence (P43681 27-627, stated change not applied) above

[10] = target: α4β2 nAChR from β-21a-α-α^VFL-β-α (Homo sapiens, UniProt P17787+P43681, H142V/Q150F/T152L); test: two-electrode voltage-clamp, oocytes, pentameric β-21a-α-α^VFL-β-α; type: cell-based
Chain of α4β2 nAChR from β-21a-α-α^VFL-β-α (P17787 26-502): as the sequence (P17787 26-502) above
Chain of α4β2 nAChR from β-21a-α-α^VFL-β-α (P43681 27-627, stated change not applied): as the sequence (P43681 27-627, stated change not applied) above
Chain of α4β2 nAChR from β-21a-α-α^VFL-β-α (P43681 27-627 H142V/Q150F/T152L): as the sequence (P43681 27-627, stated change not applied) above, with H116V, Q124F, T126L counted along it
Chain of α4β2 nAChR from β-21a-α-α^VFL-β-α (P17787 26-502): as the sequence (P17787 26-502) above
Chain of α4β2 nAChR from β-21a-α-α^VFL-β-α (P43681 27-627, stated change not applied): as the sequence (P43681 27-627, stated change not applied) above

[11] = tested on: (α4)2(β2)3 nAChR from α4 and β2 (1:4); details: 10 µM ACh, ref Timmermann et al. (2012); cited from earlier work
Ls-AChBP = details: read-out: NS9283 Ki at Ls-AChBP; ref Olsen et al., 2014; cited from earlier work

CC(=O)OCC[N+](C)(C)C [ACh, acetylcholine]
ACh Frac (first component fraction) [1]: 0.39 ± 0.05 | ACh Frac (first component fraction) ([2]; β-9a-α + α4^VFL, biphasic fit): 0.32 ± 0.09 | ACh Frac (first component fraction) [3]: 0.059 ± 0.018 | Emax ([4]; read-out: ACh Emax): 103 ± 1% | ACh Frac (first component fraction) ([4]; β-3a-α alone, biphasic fit): 0.64 ± 0.11 | ACh Frac (first component fraction) [5]: 0.11 ± 0.02 | ACh Frac (first component fraction) [6]: 0.053 ± 0.028 | mean AChmax-evoked currents [7]: 1–2 μA | ACh Frac (first component fraction) ([7]; biphasic fit): 0.035 ± 0.020 | ACh Frac (first component fraction) [8]: 0.40 ± 0.12 | Emax ([9]; read-out: ACh Emax): 100 ± 2% | ACh Frac (first component fraction) ([9]; β-21a-α-α-β-α, biphasic fit): 0.060 ± 0.025 | Emax ([10]; read-out: ACh Emax): 102 ± 2% | ACh Frac (first component fraction) ([10]; β-21a-α-α^VFL-β-α, biphasic fit): 0.46 ± 0.18

N#Cc1cccc(-c2nc(-c3cccnc3)no2)c1 [NS9283, 3-(3-(pyridine-3-yl)-1,2,4-oxadiazol-5-yl)benzonitrile]
EC50 ([2]; NS9283 pEC50, β-9a-α + α4^VFL, coapplied with 10 µM ACh): 10 µM | NS9283 E31.6 µM ([2]; β-9a-α + α4^VFL, […] NS9283 + 10 µM ACh, % change from AChcontrol current): 200 ± 10% | EC50 [9]: 5.01 µM | Emax ([9]; read-out: NS9283 Emax): 910 ± 70% | NS9283 E31.6 µM ([9]; β-21a-α-α-β-α, […] NS9283 + 10 µM ACh, % change from AChcontrol current): 780 ± 90% | EC50 ([10]; NS9283 pEC50, β-21a-α-α^VFL-β-α, coapplied with 10 µM ACh): 10 µM | Emax ([10]; read-out: NS9283 Emax): 75 ± 9% | NS9283 E31.6 µM ([10]; β-21a-α-α^VFL-β-α, […] NS9283 + 10 µM ACh, % change from AChcontrol current): 55 ± 6% | NS9283 effect on AChcontrol-evoked current amplitudes at […] or higher [11]: inhibition | Ki (Ls-AChBP): 67 µM
